Assay results reported in patent US20180028680A1, “GLYCOOPTIMIZED ANTIBODY DRUG CONJUGATES” (GLYCOTOPE GMBH, priority 2015, published 2018).

Test system: SK-BR-3 cells
Assay: Inhibition of proliferation, MTT assay
Format: cell-based, human
Details: 20 nM, positive control
Description: The MTT assay is a non-radioactive assay based on the cleavage of the soluble yellow tetrazolium salt MTT (3-[4,5-Dimethylthiazol-2-yl]-2,5-diphenyltetrazolium bromide; Thiazolyl Blue) by mitochondrial dehydrogenases of viable cells. […] The absorbance signal is a direct measure for viable cells in the culture.
Human IgG1 or medium alone served as negative controls. Briefly, SK-BR-3 cells were grown for 2 days in 96-well flat bottom plates. […] The supernatant was completely removed and MTT was added. Cells were incubated for 2 hours with MTT at 37° C. in a humidified CO2 incubator. The supernatant was removed and cells were lysed using HCI and 2-propanol containing lysis buffer for 1 h at room temperature in the dark. Absorbance at 570 nm/630 nm was measured in a plate reader Infinite F200 (Tecan Austria GmbH).
Proliferation after 4 days of incubation with the antibodies was calculated relative to the proliferation in the medium control.

In the case of `CC(=O)O[C@H]1C(=O)[C@@]2(C)[C@H]([C@H](OC(=O)c3ccccc3)[C@]3(O)C[C@H](OC(=O)[C@H](O)[C@@H](NC(=O)c4ccccc4)c4ccccc4)C(C)=C1C3(C)C)[C@]1(OC(C)=O)CO[C@@H]1C[C@@H]2O` [Taxol], the “proliferation compared to the medium control” value is reported as 6%.
